# Values quoted from earlier work as cited in patent publication US20260057961A1, “CHROMOSOME 9P24 LOSS AND GAIN PREDICTS RESISTANCE AND BENEFIT OF IMMUNE CHECKPOINT INHIBITORS” (THE REGENTS OF THE UNIVERSITY OF CALIFORNIA, priority 2022, published 2026).
# Experiments:
# [1] = test system: HNSC; conditions: recurrent/metastatic setting after platinum failure
# [2] = test system: HNSC
Substance,overall survival compared to chemotherapy or cetuximab [1],"overall survival compared to chemotherapy ([2]; pembrolizumab alone, approximately 20% of patients, with no PD-L1 expression)","survival versus platinum/5FU/cetuximab ([2]; pembrolizumab monotherapy, patients whose tumors expressed PD-L1 protein by immunohistochemistry)"
nivolumab,improved overall survival,–,–
pembrolizumab,improved overall survival,worse,improved survival
